From patent US20250339399A1, “SUPRAMOLECULAR SELF-ASSEMBLY SYSTEM” (Beijing Creatron Institute of Pharmaceutical Research Co., …, priority 2022, published 2025)

Columns and labels:
[1] = prost derivatives, Table 31 (relevant information); cited from earlier work
[2] = prost derivatives; 37° C.; cited from earlier work
[3] = Guest molecule concentration after incubation in initial medium without polymer (Comparative Example 1); type: physicochemical; conditions: 37° C., pH 2.0 hydrochloric acid
How it was run: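 Dissolved guest content measured by HPLC of centrifuged supernatants (37° C., 13000 rpm, 5 min) sampled at 0.5 h, 3 h and 6 h. Incubation was polymer-free at 37° C.±0.5° C. in buffers of pH 2.0-7.4; nominal loading was set by maximum clinical dose.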

[4] = Binary supramolecular self-assembly systems of polymer and target: guest concentration over incubation time (Comparative Example 2); type: physicochemical
Experimental: Experiments were conducted according to the steps in Comparative Example 1, and quantitative analysis was carried out using the analytical method for each target to investigate the regulation ability […] stacking.

[5] = Binary (carrier), ternary and quaternary supramolecular self-assembly systems of polymer, carrier building block and target: guest concentration over incubation time (Examples 1-56); type: physicochemical; conditions: 6 h
How it was run: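 Targets were incubated at 37 °C in pH 2.0–7.4 buffers with 0.5% polymer alone or with carrier building blocks, after 0.5 h sonication for ternary systems, and shaken at 200 rpm. Samples at 0.5–6 h were centrifuged and diluted ≥10-fold, and dissolved target was quantified by HPLC; surfactant was added if needed.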

[6] = Comparative Example 3: systems with 10% (W/V) natural building block; type: physicochemical; conditions: Comparative Example 3: 10% 313; 6 h
Experimental: An initial medium of each above target molecule was used to prepare a solution containing 10% Rubusoside A (313) or 10% (W/V) Mogroside V (319), the solution was sonicated at 37° C. to prepare a solution containing about 100 mg/mL building block 313 or 319 per 1 mL of the initial medium, the clear medium containing the natural building blocks was incubated in a 37° C. constant temperature air bath shaker for 1 hour, and subsequent operations and sample detection followed the steps of Comparative Examples 1 and 2. Considering that each natural building block had different UV absorption and was added at a high concentration, the more specific HPLC method was still used for quantitative determination on the solution concentration of each guest molecule, […].

[7] = 10% (W/V) Rubusoside A as building block; according to US2012/0121696A1; cited from earlier work

In the case of `CC(C)OC(=O)CCC/C=C\C[C@@H]1[C@@H](CC[C@@H](O)CCc2ccccc2)[C@H](O)C[C@@H]1O` [Latanoprost, latanoprost], the “Log P” value [1] is given as 3.98 and the Intrinsic solubility [2] is given as 30 µg/mL.
For `Cc1ccc(-c2cc(C(F)(F)F)nn2-c2ccc(S(N)(=O)=O)cc2)cc1` [Celecoxib], the “Concentration of guest molecule measured after different incubated time” value (shortened to “Concentration … after different incubated time”) ([3]; 0.5 h) was 20500 ng/mL, the “Concentration … after different incubated time” value ([3]; 3 h) was 5400 ng/mL and the “Concentration … after different incubated time” value ([3]; 6 h) was 4200 ng/mL. For the same compound, the “Concentration of the target in the solution measured after different incubation time” value (from here on “Concentration … after different incubation time”) ([4]; binary system with 0.5% polymer 101, incubation 0.5 h) was 224300 ng/mL, the “Concentration … after different incubation time” value ([4]; binary system with 0.5% polymer 101, incubation 3 h) was 62200 ng/mL and the “Concentration … after different incubation time” value ([4]; binary system with 0.5% polymer 101, incubation 6 h) was 54400 ng/mL. For the same compound, the “Concentration … after different incubation time” value ([4]; binary system with 0.5% polymer 102, incubation 0.5 h) was 19600 ng/mL, the “Concentration … after different incubation time” value ([4]; binary system with 0.5% polymer 102, incubation 3 h) was 11100 ng/mL and the “Concentration … after different incubation time” value ([4]; binary system with 0.5% polymer 102, incubation 6 h) was 10600 ng/mL. The “Concentration … after different incubation time” value ([4]; binary system with 0.5% polymer 103, incubation 0.5 h) was 31100 ng/mL, the “Concentration … after different incubation time” value ([4]; binary system with 0.5% polymer 103, incubation 3 h) was 32200 ng/mL and the “Concentration … after different incubation time” value ([4]; binary system with 0.5% polymer 103, incubation 6 h) was 31900 ng/mL. The “Concentration … after different incubation time” value ([4]; binary system with 0.5% polymer 106, incubation 0.5 h) was 49000 ng/mL, the “Concentration … after different incubation time” value ([4]; binary system with 0.5% polymer 106, incubation 3 h) was 30100 ng/mL and the “Concentration … after different incubation time” value ([4]; binary system with 0.5% polymer 106, incubation 6 h) was 26300 ng/mL. For the same compound, the “Concentration … after different incubation time” value ([4]; binary system with 0.5% polymer 107, incubation 0.5 h) was 36400 ng/mL, the “Concentration … after different incubation time” value ([4]; binary system with 0.5% polymer 107, incubation 3 h) was 35400 ng/mL and the “Concentration … after different incubation time” value ([4]; binary system with 0.5% polymer 107, incubation 6 h) was 35300 ng/mL. The “Concentration … after different incubation time” value ([4]; binary system with 0.5% polymer 110, incubation 0.5 h) was 6400 ng/mL, the “Concentration … after different incubation time” value ([4]; binary system with 0.5% polymer 110, incubation 3 h) was 11100 ng/mL and the “Concentration … after different incubation time” value ([4]; binary system with 0.5% polymer 110, incubation 6 h) was 4800 ng/mL. The “Concentration of guest molecule in solution” value (“Concentration … in solution” below) ([5]; ternary: 0.25% 102L + 0.1% 313) was 988100 ng/mL, the “Times that in Comparative Example 3” value ([5]; ternary: 0.25% 102L + 0.1% 313) was 31.9 times and the “Concentration … in solution” value ([5]; ternary: 0.25% 102L + 1.0% 313) was 352300 ng/mL. The “Times that in Comparative Example 3” value ([5]; ternary: 0.25% 102L + 1.0% 313) was 11.4 times, the “Concentration … in solution” value [6] was 31300 ng/mL and the “Concentration in the solution” value [7] was 109000 ng/mL.
